Experiments:
[1] = Acute toxicity in mice (LD 50, intraperitoneal); conditions: mouse, in vivo, ip, CD1 mice, deaths recorded 48 hours after administration, determined graphically
Method: I. Acute toxicity in mice
The compounds of the invention and the reference substances were administered intraperitoneally to CD1 mice. The 50% lethal dose (LD 50) was determined graphically. The number of dead animals 48 hours after intraperitoneal administration was recorded.

[2] = system: convulsions induced by bicuculline in mice; assay: Antagonism to convulsions induced by bicuculline in mice (anti-bicuculline activity); type: in vivo; conditions: Mus musculus, ip, intraperitoneal, dose which protects 50% of the animals against the effect of bicuculline, read-out: Anti-bicuculline activity, AD 50 (intraperitoneal administration)
Method: II. GABA-animetic activity of the compounds (I)
The experimental method of Curtis, D. R., et al., Brain Res., 1971, 33, 57 and Perez de la Mora, N., Biochem. Pharmacol., 1973, 22, 2,635, was used.
The 50% active doses (AD 50), namely the doses which protect 50% of the animals against the effect of bicuculline, were evaluated for the substances studied.

[3] = oral or parenteral administration; cited from earlier work
[4] = system: epilepsy; conditions: cited from earlier work

SMILES | LD50 at 48 h [1] | ED50 [2] | crossing of the blood-brain barrier (in words) [3] | side-effects (in words) ([4]; administration of GABA) | use in epilepsy (in words) ([4]; some cases of epilepsy, very large quantities needed)
O=C(O)CCCN=C(c1ccccc1)c1cc(Cl)ccc1O [75,005] | 350 mg/kg | 120 mg/kg |  |  | 
O=C(O)CCCCN=C(c1ccccc1)c1ccccc1O [75,006] | 700 mg/kg | 250 mg/kg |  |  | 
O=C(O)CCCN=C(c1ccccc1)c1cc(F)ccc1O [75,010, Sodium 4-N-(α-phenyl-5-fluoro-2-hydroxy-benzylidenyl)-amino-butyrate] | 600 mg/kg | 125 mg/kg |  |  | 
O=C(O)CCCN=C(c1cc(F)ccc1O)c1ccccc1F [75,017] | 525 mg/kg | 175 mg/kg |  |  | 
O=C(O)CCN=C(c1ccccc1)c1ccccc1O [75,019] | 830 mg/kg | 425 mg/kg |  |  | 
O=C(O)CCCN=C(c1cc(F)ccc1O)c1ccccc1Cl [75,027] | 375 mg/kg | 125 mg/kg |  |  | 
Cc1ccccc1C(=NCCCC(=O)O)c1cc(F)ccc1O [75,029] | 475 mg/kg | 250 mg/kg |  |  | 
NC(=O)CN=C(c1ccccc1)c1ccccc1O [75,037] | 1350 mg/kg | 20 mg/kg |  |  | 
O=C(O)CCCN=C(c1cccc(F)c1)c1cc(F)ccc1O [75,044, Sodium 4-N-[α-(3-fluorophenyl)-5-fluoro-2-hydroxy-benzylidenyl]-amino-butyrate] | 850 mg/kg | 250 mg/kg |  |  | 
O=C(O)CCCN=C(c1ccc(F)cc1)c1cc(F)ccc1O [75,045, Sodium 4-N-[α-(4-fluorophenyl)-5-fluoro-2-hydroxy-benzylidenyl]-amino-butyrate] | 650 mg/kg | 125 mg/kg |  |  | 
O=C(O)CCCN=C(c1ccccc1O)c1ccccc1F [75,046] | 675 mg/kg | 225 mg/kg |  |  | 
Cc1ccc(O)c(C(=NCCCC(=O)O)c2ccccc2F)c1 [75,053] | 600 mg/kg | 125 mg/kg |  |  | 
O=C(O)CCCCCCCCCCN=C(c1ccccc1)c1cc(F)ccc1O [75,054] | 300 mg/kg | 130 mg/kg |  |  | 
O=C(O)CCCCCN=C(c1ccccc1)c1cc(F)ccc1O [75,059] | 800 mg/kg | 200 mg/kg |  |  | 
O=C(O)CCCCCN=C(c1ccccc1)c1ccccc1O [75,074] | 750 mg/kg | 300 mg/kg |  |  | 
O=C(O)CCCCCCCCCCN=C(c1ccccc1)c1ccccc1O [75,075, Sodium 11-N-(α-phenyl-2-hydroxy-benzylidenyl)-amino-undecamoate] | 210 mg/kg | 100 mg/kg |  |  | 
O=C(O)CCCN=C(c1ccccc1O)c1ccccc1Cl [75,078] | 350 mg/kg | 110 mg/kg |  |  | 
NC(=O)CN=C(c1ccccc1)c1cc(F)ccc1O [75,083] | 650 mg/kg | 175 mg/kg |  |  | 
O=C(O)CCCCCCCN=C(c1ccccc1)c1ccccc1O [75,100] | 600 mg/kg | 300 mg/kg |  |  | 
O=C(O)CCCN=C(c1ccc(Cl)cc1)c1cc(F)ccc1O [75,102] | 500 mg/kg | 65 mg/kg |  |  | 
COc1ccc(C(=NCCCC(=O)O)c2ccccc2)c(O)c1 [75,107] | 950 mg/kg | 450 mg/kg |  |  | 

SMILES | LD50 at 48 h [1] | ED50 [2] | crossing of the blood-brain barrier (in words) [3] | side-effects (in words) ([4]; administration of GABA) | use in epilepsy (in words) ([4]; some cases of epilepsy, very large quantities needed)
COc1ccc(C(=NCCCC(=O)O)c2ccc(Cl)cc2)c(O)c1 [75,118] | 525 mg/kg | 225 mg/kg |  |  | 
Cc1ccc(O)c(C(=NCCCC(=O)O)c2ccccc2Cl)c1 [75,136] | 350 mg/kg | 110 mg/kg |  |  | 
NC(=O)CCCN=C(c1ccc(F)cc1)c1cc(F)ccc1O [75,166] | > 2000 mg/kg | 180 mg/kg |  |  | 
NC(=O)CCCN=C(c1ccccc1)c1cc(F)ccc1O [75,167] | > 2000 mg/kg | 100 mg/kg |  |  | 
CCOC(=O)CCCNC(=O)CCCN=C(c1ccccc1)c1cc(F)ccc1O [75,168] | 975 mg/kg | 500 mg/kg |  |  | 
NC(=O)CCCN=C(c1ccc(Cl)cc1)c1cc(F)ccc1O [76,002, 4-[(4-Chlorophenyl)-5-fluoro-2-hydroxy-benzylidenyl]-amino-butyramide] | 900 mg/kg | 65 mg/kg |  |  | 
O=C(CCCN=C(c1ccccc1)c1cc(F)ccc1O)NC1CC1 [76,010] | 1250 mg/kg | 250 mg/kg |  |  | 
O=C(CCCN=C(c1ccccc1)c1cc(F)ccc1O)NC1CCCC1 [76,011] | > 2000 mg/kg | 365 mg/kg |  |  | 
O=C(CCCN=C(c1ccccc1)c1cc(F)ccc1O)Nc1ccccc1 [76,012] | > 2000 mg/kg | 500 mg/kg |  |  | 
O=C(CCCN=C(c1ccccc1)c1cc(F)ccc1O)NCc1ccccc1 [76,013] | > 2000 mg/kg | 200 mg/kg |  |  | 
CN(C)C(=O)CCCN=C(c1ccccc1)c1cc(F)ccc1O [76,022] | 1400 mg/kg | 350 mg/kg |  |  | 
CCCCN(CCCC)C(=O)CCCN=C(c1ccccc1)c1cc(F)ccc1O [76,023] | 1700 mg/kg | 300 mg/kg |  |  | 
O=C(CCCN=C(c1ccccc1)c1cc(F)ccc1O)NC1CCC1 [76,030] | > 2000 mg/kg | 200 mg/kg |  |  | 
CC(C)NC(=O)CCCN=C(c1ccccc1)c1cc(F)ccc1O [76,031] | > 2000 mg/kg | 500 mg/kg |  |  | 
CCCC(CCN=C(c1ccccc1)c1cc(F)ccc1O)C(=O)O (stereo not drawn) [76,085] | 340 mg/kg | 170 mg/kg |  |  | 
NC(=O)CCCN=C(c1cc(F)ccc1O)c1ccccc1Cl [76,086] | 235 mg/kg | 50 mg/kg |  |  | 
NC(=O)CCCN=C(c1cccc(Cl)c1)c1cc(F)ccc1O [76,091] | 600 mg/kg | 300 mg/kg |  |  | 
NCCCC(=O)O [GABA, γ-Aminobutyric acid] | > 4000 mg/kg | > 4000 mg/kg | does not easily cross the blood-brain barrier | substantial sideeffects (hypotension, bradycardia, and sedation) | used with success in some cases of epilepsy
NC(=O)CN1CCCC1=O [PIRACETAM, reference compound] | > 4000 mg/kg | 500 mg/kg |  |  | 
O=C(O)CCCN=C(c1ccccc1)c1ccccc1O [SL 74,227] | 975 mg/kg | 500 mg/kg |  |  | 
O=C(O)CCCCN=C(c1ccccc1)c1cc(F)ccc1O [SL 75,106] | 600 mg/kg | 120 mg/kg |  |  | 

From patent US4400394A, “Benzylidene derivatives” (priority 1975, dated 1983)
